According to publication PMC4721142, “Randomized controlled studies on the efficacy of antiarthritic agents in inhibiting cartilage degeneration and pain associated with progression of osteoarthritis in the rat” (Arthritis Research & Therapy, 2016):
Values joined by “and” are separate entries in the source; they are usually repeats but may differ in a detail not shown here. Equal values may be shown once. Read-outs that look alike come from different tables or passages of the source.

How the values were obtained:
MIA rat model of OA [1] = experiment: MIA trial 2 histopathology (same doses as dRS test); type: in vivo; set-up: key to Total joint score with matrix / Total joint score w/o matrix: sum of cartilage degeneration, osteophyte and bone scores (± matrix); settings: group mean
Procedure: (§1) Following functional testing in the first and second MIA trials, femurs were fixed in paraformaldehyde, processed, sectioned, stained with hematoxylin and eosin or Safranin O at Premier Laboratory (Longmont, CO, USA), and analyzed by a veterinary pathologist. For MIA trial 1, sections were evaluated for the percentage area of chondrocyte necrosis and/or proteolytic degeneration using a 5-point scale with 0 = none; 1 being <10 %; 2 = 10–30 %; 3 = 30–60 %; 4 = 60–90 %; and 5 being >90 %. Other characteristics of inflammation, proliferation, and integrity of the synovium, subchondral bone, and articular cartilage were scored as normal, minimal, mild, moderate, marked, or increased or decreased when severity was not graded. MIA trial 2 was measured similarly and then cross-checked according to the methods used for MIA trial 3 (see text below).
For MIA trial 3, joints were fixed and toluidine blue–stained sections of the rat knees were comprehensively analyzed from test and control subjects as detailed in Additional file 1. Briefly, a 5-point cartilage matrix score was derived based upon (1) approximate percentage of total loss of articular chondrocytes for each of four articular surfaces, (2) estimated proteoglycan loss (via Safranin O staining), and (3) loss of interstitial matrix. Chondrocyte necrosis and proteolytic degeneration of the femurs were scored on a 5-point scale as in trial 1. A femoral cartilage degeneration score and a three-zone sum of the tibial cartilage degeneration scores (mean of three levels) were also summed to create a total cartilage degeneration score. The mean osteophyte score for each joint was added to this value to create a total joint score with matrix. Other parameters assessed included synovial membrane inflammation and proliferation. Representative images from each group were also collected (see, e.g., Fig. 4 and Additional file 1: Fig. S55, Trial 3).
(§2) The histopathology for the first MIA trial was performed by Premier Laboratories (Dr. Michael Hawes, APS, Pathologist). Treatments were masked during the assessment. Chondrocyte necrosis and proteolytic degeneration of the femurs were scored on a 5 point scale with 0 = None; 1 = <10%; […]
(§3) proteoglycan content (safranin O staining), synovial membrane inflammation and proliferation, subchondral bone, and articular cartilage (as indicated in Supplementary methods). Characteristics within these categories were scored as normal, minimal, mild, moderate, marked, or +/- when severity was not graded. Slides from Trial 2 were further reviewed by Dr. Bendele using the analytical method described below for the MMT/MCLT model to confirm any conclusions.
For the histopathology of the MIA model in Trial 3, completed by Bolder BioPATH (and Dr.
Bendele), a tolouidine blue stained slide containing both halves of the joint was comprehensively analyzed from test and control subjects. Approximate % of total loss of articular chondrocytes, loss of proteoglycan and loss of collagenous matrix were determined for each articular surface (medial tibial plateau (MTP), lateral tibial plateau (LTP), medial femoral condyle (MFC), and lateral femoral condyle (LFC). Chondrocyte loss was quantified by estimating the area of cartilage in which there were no apparently viable chondrocytes and proteoglycan loss was quantified by estimating differences in intensity of toluidine blue matrix staining. Loss of interstitial matrix was an indication of disruption and diminished type II collagen. Based on the mean % loss for the four surfaces in these parameters, a five point matrix score was utilized with the subchondral bone resorption, subchondral bone sclerosis and osteophyte scores to achieve a total joint score.
Histopathology MMT/MCLT Model

MIA rat model of OA [2] = experiment: MIA trial 1 weight bearing (daily s.c. clonidine 0.1, fluocinolone 0.002, morphine 6 mg/kg); type: in vivo
Procedure: Weight bearing (WB; incapacitance) was measured five times per day, once per week, using a Linton incapacitance meter (Stoelting Co., Wood Dale, IL, USA). Rats were acclimated to the meter before study initiation, and, similarly, immediately before WB, the animals were placed in the meter and allowed to acclimate for 2–5 minutes. Each hind paw was placed on a separate force plate so that the force exerted by each side could be averaged over a 5-second interval, and the mean of three readings was taken for each data point. Right paw force was compared with that on the left side for each group to confirm that animals were displaying incapacitance and/or pain behavior. Differences in force (left minus right) and right paw force as a percentage of the total force exerted by both paws were determined and compared between groups.
Following isoflurane anesthesia, 50 μl (2 mg) of MIA was injected into the synovial space of the left knee. Animals were randomly assigned to groups, and pain behavior was assessed 7, 14, 21, and 28 days following MIA injection and intervention using WB with the Stoelting incapacitance meter (trial 1) or the dRS test (trials 2 and 3). […] Animals received MIA treatment and then saline control or therapeutic. […] Histopathology was performed at each time point and at study termination. All studies were conducted in accordance with the International Association for the Study of Pain Guidelines and were approved by the Algos Therapeutics, Inc. Institutional Animal Care and Use Committee (IACUC) before initiation. Those running the studies were blind to the treatments. See Additional file 1 for further details. […]
dosing were housed three per cage. Animals had free access to food and water and were maintained […]
The animal colony was maintained at approximately 21 °C. All experiments were conducted in accordance with the International Association for the Study of Pain Guidelines.

MIA rat model of OA [3] = experiment: MIA trial 1 histopathology; type: in vivo; settings: necropsy day 29, n = 3; for Histopathology, cartilage score: 0-5 scale
Procedure: as §1, §2
as §3, with “Slides from Trial 2 were further reviewed by Dr. Bendele using the analytical method described below for the MMT/MCLT model to confirm any conclusions.” left out
Degenerative changes occur by 3-6 weeks post-surgery in the MMT/MCLT model and are of greatest severity on the outer 1/3 of the tibial cartilage. Less severe degenerative changes are observed in the middle and inner 1/3 of the tibial cartilage. Osteophytes progressively increase in size and are ultimately quite large (medial tibia). By 12 months nearly all rats show total cartilage loss. Due to the rapid progression of cartilage degeneration, protective effects of therapeutics are not always apparent in the outer 1/3 of the tibial cartilage, although zonal analysis may reveal effects of treatment in the middle and inner 1/3. Substantial subchondral and epiphyseal bone changes occur in the medial tibia subjacent to the areas of greatest lesion severity. […]
Scores were based on the […]
percentage of area affected within the zone.
Cartilage degeneration in the tibia was scored on a five point scale for each zone, collagen damage across the medial tibial plateau was measured by total width for each grade damage. Cartilage degeneration in the tibia was scored none to severe (numerical values 0-5) for each zone (area defined by micrometer) using the following criteria: […]

MMP-13 = MMP-13 ELISA on supernatants of TNF-α-treated chondrogenic pellets; type: cell-based, human
[4] = MIA trial 2 clinical observations; type: in vivo, rat; settings: tacrolimus i.p. daily
[5] = rat, in vivo
Procedure: Using the MMT/MCLT model, a number of the same agents were tested via systemic delivery and
using incapacitance /weight bearing as a measure of pain.

[6] = tacrolimus 0.3 mg/kg, other drugs single dose

SMILES	Bone resorption score (MIA rat model of OA [1]; [6])	Bone resorption, percent of surface, LFC (MIA rat model of OA [1]; [6])	Bone resorption, percent of surface, LTP (MIA rat model of OA [1]; [6])	Bone resorption, percent of surface, MFC (MIA rat model of OA [1]; [6])	Bone resorption, percent of surface, MTP (MIA rat model of OA [1]; [6])	Bone resorption, percent of surface, mean (MIA rat model of OA [1]; [6])	Cartilage matrix damage score (MIA rat model of OA [1]; [6])	Mean of all cartilage loss (MIA rat model of OA [1]; [6])	Osteophyte measure (MIA rat model of OA [1]; [6])	Osteophyte score (MIA rat model of OA [1]; [6])	Subchondral bone sclerosis score (MIA rat model of OA [1]; [6])	Total joint score w/o matrix (MIA rat model of OA [1]; [6])	Total joint score with matrix (MIA rat model of OA [1]; [6])	Weight bearing, hours after dosing with significant difference (MIA rat model of OA [2]; day 21, BL baseline)	Histopathology, bone (MIA rat model of OA [3])	Histopathology, cartilage score (MIA rat model of OA [3])	also measured
COc1cc(/C=C/C(=O)CC(=O)/C=C/c2ccc(O)c(OC)c2)ccc1O [Curcumin, Diferuloylmethane]	4.8	100%	100%	88%	90%	94%	5.0 and 5.0 ± 0.0	89%	1000.0 µm	4.8	0.0	9.5	14.5 and 14.5 ± 0.3	–	–	–	–
Clc1cccc(Cl)c1N=C1NCCN1 [Clonidine]	3.7	87%	53%	63%	73%	69%	3.7 and 3.7 ± 0.3	67%	866.7 µm	4.0	0.3	8.0	11.7 and 11.7 ± 0.9	1 h	Severe	4.7	Weight bearing, hours after dosing with significant difference (MIA rat model of OA [2]; day 14): 1 h; Effective range against MMP-13 (MMP-13): Not effective
C=CC[C@@H]1/C=C(\C)C[C@H](C)C[C@H](OC)[C@H]2O[C@@](O)(C(=O)C(=O)N3CCCC[C@H]3C(=O)O[C@H](/C(C)=C/[C@@H]3CC[C@@H](O)[C@H](OC)C3)[C@H](C)[C@@H](O)CC1=O)[C@H](C)C[C@@H]2OC [Tacrolimus]	4.3	88%	88%	70%	94%	85%	3.8 and 3.8 ± 0.6	69%	700.0 µm	3.5	0.0	7.8	11.5 and 11.5 ± 1.7	–	–	–	Bone resorption score (MIA rat model of OA [1]; tacrolimus 0.6 mg/kg i.p.): 3.8; Bone resorption, percent of surface, LFC (MIA rat model of OA [1]; tacrolimus 0.6 mg/kg i.p.): 80%; Bone resorption, percent of surface, LTP (MIA rat model of OA [1]; tacrolimus 0.6 mg/kg i.p.): 70%; Bone resorption, percent of surface, MFC (MIA rat model of OA [1]; tacrolimus 0.6 mg/kg i.p.): 63%; Bone resorption, percent of surface, MTP (MIA rat model of OA [1]; tacrolimus 0.6 mg/kg i.p.): 68%; Bone resorption, percent of surface, mean (MIA rat model of OA [1]; tacrolimus 0.6 mg/kg i.p.): 70%; Cartilage matrix damage score (MIA rat model of OA [1]; tacrolimus 0.6 mg/kg i.p.): 3.8 and 3.8 ± 0.6; Mean of all cartilage loss (MIA rat model of OA [1]; tacrolimus 0.6 mg/kg i.p.): 62%; Osteophyte measure (MIA rat model of OA [1]; tacrolimus 0.6 mg/kg i.p.): 550.0 µm; Osteophyte score (MIA rat model of OA [1]; tacrolimus 0.6 mg/kg i.p.): 2.8; Subchondral bone sclerosis score (MIA rat model of OA [1]; tacrolimus 0.6 mg/kg i.p.): 0.0; Total joint score w/o matrix (MIA rat model of OA [1]; tacrolimus 0.6 mg/kg i.p.): 6.5; Total joint score with matrix (MIA rat model of OA [1]; tacrolimus 0.6 mg/kg i.p.): 10.3 and 10.3 ± 2.1; Clinical observation [4]: blood in the stool; Concentration inhibiting MMP-13 (MMP-13; > = failed to inhibit up to highest concentration tested): 50 µM; Clinical observation [5]: blood in the stool
CC1(C)O[C@@H]2C[C@H]3[C@@H]4C[C@H](F)C5=CC(=O)C=C[C@]5(C)[C@@]4(F)[C@@H](O)C[C@]3(C)[C@]2(C(=O)CO)O1 [Fluocinolone, Fluocinolone Acetonide]	3.0	65%	58%	38%	45%	51%	3.3 and 3.3 ± 0.8	60%	600.0 µm	3.0	0.0	6.0	9.3 and 9.3 ± 2.5	BL^b, 1	Minimal	3.0	–
